Measurements from publication PMC12042053, “Activation and Allostery in a Fungal SAMHD1 Hydrolase: An Evolutionary Blueprint for dNTP Catabolism” (JACS Au, 2025).

Columns and labels:
[1] = molecular target: SAMHD1 protein from Rhizophagus irregularis, wild type (Rhizophagus irregularis)
[2] = molecular target: T1, Ri SAMHD1 (Rhizophagus irregularis, UniProt A0A015K8Z8); assay: EPR of mixed-valent diiron cofactor; assay type: binding; conditions: M9-Fe protein 0.5 mM, ascorbate-reduced, 2.5 mM nucleotide, O2-free; active site
T1 construct: gene RirG_017260; full length (no SAM domain), N-terminal His6-tag, pET28a(+), expressed in E. coli T7 Express in M9 medium with Fe or Mn; purified as monomer and tetramer; crystal model residues 11-451

[3] = molecular target: T1, Ri SAMHD1; assay: X-ray crystal structure, […] Å; assay type: binding; conditions: M9-Mn protein, excess Mn, 5 mM GTP; allosteric site at interface of three subunits; Ca ion bound
[4] = molecular target: T1, Ri SAMHD1; assay: nucleotide-induced tetramerization, glutaraldehyde cross-linking and SDS-PAGE; assay type: binding; conditions: monomer, 2 μM, pH 6.5, allosteric
[5] = molecular target: T2, Ri SAMHD1 (Rhizophagus irregularis, UniProt A0A015K8Z8, R42A); assay: as above; assay type: binding; conditions: monomer, 2 μM, 1 mM Mn, pH 6.5; allosteric, cooperative
T2 construct: gene RirG_017260; full length (no SAM domain), N-terminal His6-tag, pET28a(+), expressed in E. coli T7 Express in M9 medium with Fe or Mn; purified as monomer and tetramer; crystal model residues 11-451
T2 sequence (A0A015K8Z8 entry or part of it R42A): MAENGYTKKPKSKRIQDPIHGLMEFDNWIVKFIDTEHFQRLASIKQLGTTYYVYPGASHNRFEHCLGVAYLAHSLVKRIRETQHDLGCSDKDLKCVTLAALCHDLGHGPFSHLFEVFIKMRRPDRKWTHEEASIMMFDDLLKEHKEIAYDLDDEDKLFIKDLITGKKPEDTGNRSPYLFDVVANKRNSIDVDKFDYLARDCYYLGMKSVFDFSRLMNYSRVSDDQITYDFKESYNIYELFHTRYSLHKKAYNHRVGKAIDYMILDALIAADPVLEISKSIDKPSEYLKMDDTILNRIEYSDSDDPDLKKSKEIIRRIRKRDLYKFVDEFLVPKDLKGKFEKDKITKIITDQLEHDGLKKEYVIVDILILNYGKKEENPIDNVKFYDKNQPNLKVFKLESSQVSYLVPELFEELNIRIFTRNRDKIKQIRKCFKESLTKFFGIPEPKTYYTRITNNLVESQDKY

[6] = molecular target: T1, Ri SAMHD1; assay: steady-state hydrolysis, HPLC […] nm; assay type: biochemical; conditions: M9-Fe tetramer, 0.25 μM, 1 mM Mn, 5 mM dithionite, O2-free, fit with substrate/product inhibition, suggested allosteric, second site
[7] = molecular target: T3, Ri SAMHD1 (Rhizophagus irregularis, UniProt A0A015K8Z8, D34A); assay: nucleotide-induced tetramerization, glutaraldehyde cross-linking and SDS-PAGE; assay type: binding; conditions: monomer, 2 μM, 1 mM Mn, pH 6.5; allosteric, cooperative
T3 construct: gene RirG_017260; full length (no SAM domain), N-terminal His6-tag, pET28a(+), expressed in E. coli T7 Express in M9 medium with Fe or Mn; purified as monomer and tetramer; crystal model residues 11-451
T3 sequence (A0A015K8Z8 entry or part of it D34A): as the sequence (A0A015K8Z8 entry or part of it R42A) above, with D34A, A42R counted along it

[8] = substrate: Nc1nc2c(ncn2[C@H]2C[C@H](O)[C@@H](COP(=O)(O)OP(=O)(O)OP(=O)(O)O)O2)c(=O)[nH]1; assay: purified protein; assay type: biochemical, Rhizophagus irregularis; conditions: M9-Fe tetramer, 0.25 μM, 1 mM Mn, 5 mM dithionite, O2-free; fit with substrate/product inhibition

For “SAMHD1 protein from Rhizophagus irregularis, wild type (enzyme)”, the apparent dNTP hydrolysis rates of the monomeric form on addition of GTP [1] was < 2.4 fold.

In the case of `Nc1ncnc2c1ncn2[C@H]1C[C@H](O)[C@@H](COP(=O)(O)OP(=O)(O)OP(=O)(O)O)O1` [dATP], the “EPR of mixed-valent diiron cofactor” value [2] is reported as “Addition of nonguanine-containing dNTPs (dATP, dCTP, and dTTP) increased the signal rhombicity”.

For `Nc1ccn([C@H]2C[C@H](O)[C@@H](COP(=O)(O)OP(=O)(O)OP(=O)(O)O)O2)c(=O)n1` [dCTP], the “EPR of mixed-valent diiron cofactor” value [2] was “Addition of nonguanine-containing dNTPs (dATP, dCTP, and dTTP) increased the signal rhombicity”.

With `Cc1cn([C@H]2C[C@H](O)[C@@H](COP(=O)(O)OP(=O)(O)OP(=O)(O)O)O2)c(=O)[nH]c1=O` [dTTP] the “EPR of mixed-valent diiron cofactor” value [2] was “Addition of nonguanine-containing dNTPs (dATP, dCTP, and dTTP) increased the signal rhombicity”.

For `Nc1nc2c(ncn2[C@@H]2O[C@H](COP(=O)(O)OP(=O)(O)OP(=O)(O)O)[C@@H](O)[C@H]2O)c(=O)[nH]1` [GTP], the “X-ray crystal structure, 2.27 Å” value [3] was “only one nucleotide (GTP) is positioned within the interface of three subunits” and the EC50 ([4]; Mn) was 31 ± 2 µM.

With `Nc1nc2c(ncn2[C@H]2C[C@H](O)[C@@H](COP(=O)(O)OP(=O)(O)OP(=O)(O)O)O2)c(=O)[nH]1` [dGTP] the EC50 [5] was 605 ± 9 µM, the “apparent KI” value [6] was 301 ± 24 µM and the EC50 [7] was 235 ± 5 µM. It also gave an EC50 ([4]; 1 mM Mn) of 21 ± 3 µM.

B1: Ri SAMHD1 (Rhizophagus irregularis DAOM 197198w) (protein)
chain: MAENGYTKKPKSKRIQDPIHGLMEFDNWIVKFIDTEHFQRLRSIKQLGTTYYVYPGASHNRFEHCLGVAYLAHSLVKRIRETQHDLGCSDKDLKCVTLAALCHDLGHGPFSHLFEVFIKMRRPDRKWTHEEASIMMFDDLLKEHKEIAYDLDDEDKLFIKDLITGKKPEDTGNRSPYLFDVVANKRNSIDVDKFDYLARDCYYLGMKSVFDFSRLMNYSRVSDDQITYDFKESYNIYELFHTRYSLHKKAYNHRVGKAIDYMILDALIAADPVLEISKSIDKPSEYLKMDDTILNRIEYSDSDDPDLKKSKEIIRRIRKRDLYKFVDEFLVPKDLKGKFEKDKITKIITDQLEHDGLKKEYVIVDILILNYGKKEENPIDNVKFYDKNQPNLKVFKLESSQVSYLVPELFEELNIRIFTRNRDKIKQIRKCFKESLTKFFGIPEPKTYYTRITNNLVESQDKY
notes: full length (no SAM domain), N-terminal His6-tag, pET28a(+), expressed in E. coli T7 Express in M9 medium with Fe or Mn; purified as monomer and tetramer; crystal model residues 11-451
B1 was tested, and the Km [8] was 11 ± 3 µM.
